What was measured:
Test in all cases: Test E greenhouse herbicide test, pre- and postemergence
Format in all cases: in vivo
[1] = tested on: panicum, fall (fall panicum, Panicum dichotomiflorum)
Text: (§1) Seeds of plant species selected from corn (Zea mays), soybean (Glycine max), velvetleaf (Abutilon theophrasti), lambsquarters (Chenopodium album), wild poinsettia (Euphorbia heterophylla), pigweed, palmer (palmer pigweed, Amaranthus palmeri), waterhemp (common waterhemp, Amaranthus rudis), surinam grass (Brachiaria decumbens), crabgrass, large (large crabgrass, Digitaria sanguinalis), crabgrass, Brazilian (Brazilian crabgrass, Digitaria horizontalis), panicum, fall (fall panicum, Panicum dichotomiflorum), foxtail, giant (giant foxtail, Setaria faberii), foxtail, green (green foxtail, Setaria viridis), goosegrass (Eleusine indica), johnsongrass (Sorghum halepense), ragweed (common ragweed, Ambrosia elatior), barnyardgrass (Echinochloa crus-galli), sandbur (southem sandbur, Cenchrus echinatus), arrowleaf sida (Sida rhombifolia), Italian ryegrass (Lolium multiflorum), dayflower (Virginia (VA) dayflower, Commelina virginica), field bindweed (Convolvulus arvensis), momingglory (Ipomoea coccinea), nightshade (eastern black nightshade, Solanum ptycanthum), kochia (Kochia scoparia), nutsedge, yellow (yellow nutsedge, Cyperus esculentus), horseweed (Conyza canadensis), and beggarticks (hairy beggarticks, Bidens pilosa), were planted into a silt loam soil and treated preemergence with test chemicals formulated in a non-phytotoxic solvent mixture which included a surfactant.
(§2) At the same time, plants from these crop and weed species and also waterhemp_RES1, (ALS & Triazine resistant common waterhemp, Amaranthus rudis), and waterhemp_RES2, (ALS & HPPD resistant common waterhemp, Amaranthus rudis) were planted in pots containing Redi-Earth® planting medium (Scotts Company, 14111 Scottslawn Road, Marysville, Ohio 43041) comprising spaghnum peat moss, vermiculite, wetting agent and starter nutrients were treated with postemergence applications of test chemicals formulated in the same manner. Plants ranged in height from 2 to 18 cm for postemergence treatments (1- to 4-leaf stage). Treated plants and controls were maintained in a greenhouse for 14 to 21 d, after which time all species were compared to controls and visually evaluated. Plant response ratings, summarized in Table E, are based on a scale of 0 to 100 where 0 is no effect and 100 is complete control. A dash (-) response means no test result.

[2] = tested on: crabgrass, Brazilian (Brazilian crabgrass, Digitaria horizontalis)
Text: as §1, §2

[3] = tested on: dayflower (Virginia (VA) dayflower, Commelina virginica)
Text: as §1, §2

[4] = tested on: foxtail, giant (giant foxtail, Setaria faberii); conditions: Preemergence
Text: as §1, §2

[5] = tested on: nutsedge, yellow (yellow nutsedge, Cyperus esculentus); conditions: Preemergence
Text: as §1, §2

[6] = tested on: waterhemp (common waterhemp, Amaranthus rudis)
Text: as §1, §2

[7] = tested on: sandbur (southem sandbur, Cenchrus echinatus)
Text: as §1, §2

[8] = tested on: Italian ryegrass (Lolium multiflorum)
Text: as §1, §2

[9] = tested on: lambsquarters (Chenopodium album); conditions: Preemergence
Text: as §1, §2

[10] = tested on: foxtail, green (green foxtail, Setaria viridis); conditions: Preemergence
Text: as §1, §2

[11] = tested on: beggarticks (hairy beggarticks, Bidens pilosa)
Text: as §1, §2

[12] = tested on: ragweed (common ragweed, Ambrosia elatior)
Text: as §1, §2

[13] = tested on: johnsongrass (Sorghum halepense); conditions: Preemergence
Text: as §1, §2

[14] = tested on: barnyardgrass (Echinochloa crus-galli)
Text: as §1, §2

[15] = tested on: crabgrass, large (large crabgrass, Digitaria sanguinalis); conditions: Preemergence
Text: as §1, §2

kochia (Kochia scoparia) = tested on: kochia (Kochia scoparia)
Text: as §1, §2

[16] = tested on: velvetleaf (Abutilon theophrasti); conditions: Preemergence
Text: as §1, §2

[17] = 62 g ai/ha, Preemergence, scale 0 to 100 (0 no effect, 100 complete control)
[18] = 125 g ai/ha, Postemergence, scale 0 to 100 (0 no effect, 100 complete control)
[19] = 125 g ai/ha, Preemergence, scale 0 to 100 (0 no effect, 100 complete control)
[20] = 250 g ai/ha, Postemergence, scale 0 to 100 (0 no effect, 100 complete control)
[21] = Preemergence, 31 g ai/ha, scale 0 to 100, 0 no effect, 100 complete control
[22] = Preemergence, 250 g ai/ha, visual, scale 0 no effect to 100 complete control
[23] = Preemergence, 125 g ai/ha, visual, scale 0 no effect to 100 complete control
[24] = 62 g ai/ha, scale 0 to 100 (0 no effect, 100 complete control)
[25] = 31 g ai/ha, scale 0 to 100, 0 no effect, 100 complete control
[26] = 125 g ai/ha, visual, scale 0 no effect to 100 complete control
[27] = 250 g ai/ha, visual, scale 0 no effect to 100 complete control
[28] = 125 g ai/ha, scale 0 to 100 (0 no effect, 100 complete control)

CCC(=O)Oc1c(C)nn(C)c(=O)c1-c1c(C)sc2c(C)cc(C)cc12 [Compound 28]
Plant response rating, Panicum, Fall [1, 17]: 95
Plant response rating, Panicum, Fall [1, 18]: 70
Plant response rating, Panicum, Fall [1, 19]: 98
Plant response rating, Panicum, Fall [1, 20]: 90
Plant response rating, Panicum, Fall [1, 21]: 90
Plant response rating, Panicum, Fall [1, 22]: 100
Plant response rating, Crabgrass, Brazil [2, 17]: 70
Plant response rating, Crabgrass, Brazil [2, 18]: 50
Plant response rating, Crabgrass, Brazil [2, 20]: 60
Plant response rating, Crabgrass, Brazil [2, 21]: 70
Plant response rating, Crabgrass, Brazil [2, 23]: 80
Plant response rating, Crabgrass, Brazil [2, 22]: 90
Plant response rating, Dayflower, VA [3, 17]: 10
Plant response rating, Dayflower, VA [3, 18]: 70
Plant response rating, Dayflower, VA [3, 20]: 80
Plant response rating, Dayflower, VA [3, 21]: 5
Plant response rating, Dayflower, VA [3, 23]: 65
Plant response rating, Dayflower, VA [3, 22]: 70
Plant response rating, Foxtail, Giant [4, 24]: 100
Plant response rating, Foxtail, Giant [4, 25]: 85
Plant response rating, Foxtail, Giant [4, 26]: 100
Plant response rating, Foxtail, Giant [4, 27]: 100
Plant response rating, Nutsedge, Yellow [5, 24]: 20
Plant response rating, Nutsedge, Yellow [5, 28]: 70
Plant response rating, Nutsedge, Yellow [5, 25]: 20
Plant response rating, Nutsedge, Yellow [5, 27]: 95
Plant response rating, Waterhemp [6, 17]: 80
Plant response rating, Waterhemp [6, 18]: 70
Plant response rating, Waterhemp [6, 19]: 98
Plant response rating, Waterhemp [6, 20]: 75
Plant response rating, Waterhemp [6, 21]: 65
Plant response rating, Waterhemp [6, 22]: 100
Plant response rating, Sandbur [7, 17]: 65
Plant response rating, Sandbur [7, 18]: 60
Plant response rating, Sandbur [7, 19]: 80
Plant response rating, Sandbur [7, 20]: 80
Plant response rating, Sandbur [7, 21]: 15
Plant response rating, Sandbur [7, 22]: 85
Plant response rating, Ryegrass, Italian [8, 17]: 80
Plant response rating, Ryegrass, Italian [8, 18]: 75
Plant response rating, Ryegrass, Italian [8, 19]: 95
Plant response rating, Ryegrass, Italian [8, 20]: 75
Plant response rating, Ryegrass, Italian [8, 21]: 70
Plant response rating, Ryegrass, Italian [8, 22]: 100
Plant response rating, Lambsquarters [9, 24]: 100
Plant response rating, Lambsquarters [9, 25]: 100
Plant response rating, Lambsquarters [9, 26]: 100
Plant response rating, Lambsquarters [9, 27]: 98
Plant response rating, Foxtail, Green [10, 24]: 98
Plant response rating, Foxtail, Green [10, 25]: 65
Plant response rating, Foxtail, Green [10, 26]: 100
Plant response rating, Foxtail, Green [10, 27]: 100
Plant response rating, Beggarticks [11, 17]: 100
Plant response rating, Beggarticks [11, 18]: 100
Plant response rating, Beggarticks [11, 20]: 100
Plant response rating, Beggarticks [11, 21]: 100
Plant response rating, Beggarticks [11, 23]: 100
Plant response rating, Beggarticks [11, 22]: 100
Plant response rating, Ragweed [12, 17]: 90
Plant response rating, Ragweed [12, 18]: 70
Plant response rating, Ragweed [12, 19]: 95
Plant response rating, Ragweed [12, 20]: 75
Plant response rating, Ragweed [12, 21]: 95
Plant response rating, Ragweed [12, 22]: 98
Plant response rating, Johnsongrass [13, 24]: 80
Plant response rating, Johnsongrass [13, 25]: 70
Plant response rating, Johnsongrass [13, 26]: 80
Plant response rating, Johnsongrass [13, 27]: 90
Plant response rating, Barnyardgrass [14, 17]: 20
Plant response rating, Barnyardgrass [14, 18]: 50
Plant response rating, Barnyardgrass [14, 20]: 60
Plant response rating, Barnyardgrass [14, 21]: 20
Plant response rating, Barnyardgrass [14, 23]: 65
Plant response rating, Barnyardgrass [14, 22]: 90
Plant response rating, Crabgrass, Large [15, 24]: 35
Plant response rating, Crabgrass, Large [15, 26]: 90
Plant response rating, Crabgrass, Large [15, 27]: 90
Plant response rating, Kochia (kochia (Kochia scoparia); [17]): 0
Plant response rating, Kochia (kochia (Kochia scoparia); [18]): 75
Plant response rating, Kochia (kochia (Kochia scoparia); [20]): 90
Plant response rating, Kochia (kochia (Kochia scoparia); [21]): 0
Plant response rating, Kochia (kochia (Kochia scoparia); [23]): 60
Plant response rating, Kochia (kochia (Kochia scoparia); [22]): 100
Plant response rating, Velvetleaf [16, 24]: 35
Plant response rating, Velvetleaf [16, 28]: 70
Plant response rating, Velvetleaf [16, 25]: 0
Plant response rating, Velvetleaf [16, 27]: 100
